Assay results: patent EP4813381A1, “PHARMACEUTICAL USE OF GUAIANE SESQUITERPENE DERIVATIVE” (Nanjing University Of Chinese Medicine, priority 2023, dated 2025)
Converted amounts (≈) assume the structure as drawn.

Columns and labels:
[1] = system: 4T1 cells; type: in vivo, BALB/c mice; details: 4T1, oral 40 µmol/kg/day, 3 weeks
Experimental: 4T1 cells were cultured and expanded in vitro. […] A 100 µL aliquot of this suspension was injected subcutaneously into the left forelimb axilla of female BALB/c mice. […] Daily oral administration was performed for 3 weeks. During the treatment period, mouse body weight and tumor diameter were measured daily. At the end of the experiment, mice were euthanized by cervical dislocation, and tumors were removed for weighing. Tumor volume (TV) was calculated using the formula: TV = 1/2 × a × b^2, where a represents the longest diameter of the tumor and b represents the shortest diameter.

[2] = system: inflammatory factors (TNF, IL-6, IL-1); assay: Lupus nephritis MRL/lpr mice: Q-PCR of renal inflammatory factors; type: in vivo; details: kidney mRNA, oral 30 mg/kg, 8 weeks
Experimental: Production license number: SCXK(Su)2023-0009. […] They were acclimated for 7 days before use in experiments.
Oral administration was performed continuously for 8 weeks.
Allow blood to stand at room temperature for 2 hours, then centrifuge at 3000 rpm for 20 minutes. Aspirate the serum, aliquot it, and store at -70 °C for future use. After blood collection, euthanize mice by cervical dislocation. Open the abdominal cavity, remove kidneys, and dissect out perirenal fat and capsules. […] Store remaining tissues at -70 °C for future use.
Additional primer information is as follows: Table 19. Q-PCR Primer Information

[3] = system: lupus nephritis; assay: Lupus nephritis MRL/lpr mice: urinary protein, Scr, BUN, urinary Kim-1 and β-MG; type: in vivo; design: Scr / BUN / Kim-1 / β-MG: unit not given here; details: oral 30 mg/kg, 8 weeks
Experimental: RT Supermix for qPCR, Nanjing Vazyme Biotech Co., Ltd.; Urea Colorimetric Test Kit, Creatinine Colorimetric Test Kit, Nanjing Jiancheng Biotechnology Co., Ltd.; Urinary Kim-1 and β-MG Content ELISA Kits, Abcam. • Experimental animals: MRL/MpJ and MRL/lpr mice, female, 10 weeks old, purchased from GemPharmatech LLC. Production license number: SCXK(Su)2023-0009. […] They were acclimated for 7 days before use in experiments. […] Oral administration was performed continuously for 8 weeks. […] Aspirate the serum, aliquot it, and store at -70 °C for future use. After blood collection, euthanize mice by cervical dislocation. Open the abdominal cavity, remove kidneys, and dissect out perirenal fat and capsules. […] Store remaining tissues at -70 °C for future use. Serum Creatinine (Scr) and Blood Urea Nitrogen (BUN) Assay: […] Samples were added sequentially strictly according to the kit instructions, incubated at 37 °C, and measured for absorbance values using an enzyme-linked immunosorbent assay (ELISA) reader. The concentration levels of each indicator were calculated based on the standard curve.

[4] = Conversion rate of salt-form prodrugs to parent compound in HEPES buffer solution; type: physicochemical; details: conversion to Compound 83, HEPES buffer pH 7.4, 37 °C
Summary of the method: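 Salt-form prodrug dissolved in water was mixed 1:1 with HEPES buffer pH 7.4 (or mouse serum) and incubated at 37°C. Aliquots were quenched with methanol and centrifuged, and supernatants taken at 1, 2, 4, 8 and 12 h were analysed by HPLC. Conversion was followed by peak areas.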

[5] = Conversion rate of salt-form prodrugs to parent compound in mouse plasma; type: in vitro ADME; details: conversion to Compound 83, mouse plasma, 37 °C
[6] = system: CCR2 mRNA; assay: CCR2 mRNA level in MDSCs (PCR); type: cell-based, mice; details: CCR2 mRNA levels in MDSCs, 2 h
Experimental: Mice were euthanized by cervical dislocation and immersed in 75% ethanol solution for 5 min. Under sterile conditions, the tibia was removed, both ends of the bone were cut, and bone marrow was repeatedly flushed into a 15 mL centrifuge tube using a 1 mL syringe filled with culture medium. Centrifuge at 1600 rpm for 5 min to collect bone marrow cells. Wash twice with 1×PBS, then resuspend in RPMI 1640 complete medium containing GM-CSF (10 ng/mL) + IL-4 (10 ng/mL) and transfer to a cell culture dish to stimulate differentiation of bone marrow cells into MDSCs. Count cells and adjust density to 1 × 10^6 cells/mL in complete medium. Seed cells uniformly into 6-well plates at 2 mL per well. […] After incubation, collect cells into centrifuge tubes, centrifuge at 1600 rpm for 5 min, wash once with 1×PBS, and add 500 µL RNA extraction reagent to each tube. After centrifugation to obtain the pellet, add 20 µL DEPC-treated water to each tube to dissolve the pellet. Determine RNA concentration and reverse transcribe to cDNA. Add the cDNA, primers, and reverse transcriptase to a 96-well plate. Centrifuge at 4000 rpm for 5 min, then place in a PCR instrument for detection.

[7] = system: MDSCs; assay: Inhibition of MDSC chemotaxis (Transwell, Hepa1-6 tumor-conditioned medium); type: cell-based, mice; details: 12 h treatment, 24 h Transwell
Experimental: Hepa1-6 mouse hepatocellular carcinoma cells were uniformly seeded into 6-well plates. After cells reached confluence, supernatant was aspirated, and 1-1.5 mL fresh medium was added to each well. Following 24 h culture, supernatant was collected, centrifuged at 1600 rpm for 5 min, aspirated, and filtered through a 0.22 µm membrane to obtain tumor-conditioned medium for subsequent use. Euthanize mice by cervical dislocation and immerse in 75% ethanol solution for 5 min. Under sterile conditions, remove the tibia, cut both ends of the bone, and aspirate the bone marrow into a 1 mL syringe. Repeat flushing into a 15 mL centrifuge tube. Centrifuge at 1600 rpm for 5 min to collect bone marrow cells. Wash twice with 1×PBS. Resuspend cells in complete RPMI 1640 medium containing cytokines GM-CSF (10 ng/mL) and IL-4 (10 ng/mL) to stimulate differentiation into MDSCs. Count cells, adjust density to 1×10^6 cells/mL, and uniformly seed into 24-well plates at 300 µL per well. […] Centrifuge at 1600 rpm for 5 min, remove supernatant, resuspend cells in 300 µL fresh medium, and place into Transwell chambers. Add 600 µL normal medium (control group) or tumor-conditioned medium (model group) to the lower chamber. Co-culture for 24 h.

[8] = system: CCl4-induced liver injury; assay: CCl4 acute liver injury model in mice: serum ALT and AST; type: in vivo, C57BL/6 mice; details: 200 mg/kg (method: U/L)
Text: The drug of the present invention, prepared according to Example 2; Silybin, Shanghai Yuanye Biotechnology Co., Ltd.; Olive oil, Beijing […] Olive Oil Development Center; Analytical grade carbon tetrachloride (CCl4), Shantou Xilong Chemical Factory; Sodium carboxymethyl cellulose (CMC-Na), Guangdong Shantou Xilong Chemical Factory; RNA Isolater Total RNA Extraction Reagent, […] RT Supermix for qPCR, Nanjing Vazyme Biotech Co., Ltd.; AceQ qPCR SYBR Green Master Mix, Shanghai Yeasen Biotechnology Co., Ltd.; Aspartate Transaminase (AST/GOT) Colorimetric Test Kit, Alanine Transaminase (ALT/GPT) Colorimetric Test Kit, Wuhan Elabscience Biotechnology Co., Ltd. • Experimental animals: […] SCXK(Su)2019-002. […] They were acclimated for 7 days before use in experiments. • Experimental Methods: Establishment of Acute Liver Injury Model in Mice and Group-Specific Drug Administration • Mice were randomly assigned to groups. […] One hour after the final drug administration, blood was collected from the retinal venous plexus. […] Serum was aspirated, aliquoted, and stored at -70 °C for future use. After blood collection, euthanize mice by cervical dislocation. Perform laparotomy to remove the liver. Rinse twice with pre-chilled PBS. Excise the left hepatic lobe tissue. […] Store remaining tissue at -70 °C for future use. • Serum AST and ALT Assay: Use 10 μL of each sample for testing. Determine mouse serum AST and ALT levels according to the operating manual. Measure absorbance at 510 nm using an enzyme-linked immunosorbent assay (ELISA) reader. Calculate sample concentration (U/L) based on the standard curve. Data Statistics: All data are expressed as means ± standard error of the mean (S.E.M.). Differences were analyzed for significance using analysis of variance (ANOVA). For groups showing significant differences in ANOVA, one-way ANOVA followed by Dunnett's test was performed to compare intergroup differences.

[9] = system: fibrosis-related factors (Acta2, Col1a1, Tgfb1); assay: CCl4 acute liver injury model in mice: Q-PCR of fibrosis-related factors in liver; type: in vivo, C57BL/6 mice; details: liver mRNA, 200 mg/kg
Experimental: They were acclimated for 7 days before use in experiments. • Experimental Methods: Establishment of Acute Liver Injury Model in Mice and Group-Specific Drug Administration • Mice were randomly assigned to groups. One group was arbitrarily designated as the normal group, while the remaining groups served as model group, Compound 1 group, Hydrochloride 20 group, Fumarate 21 group, and Silibinin group, with 6 mice per group. Except for the normal group receiving 10 mL olive oil/kg via injection, all other mice received 0.5 mL CCl4 + 9.5 mL olive oil/kg body weight via intraperitoneal injection, maintaining a CCl4 to olive oil ratio of 1:19. Starting from day 1 of modeling, Compound 1, Hydrochloride 20, and Fumarate 21 were administered orally for 3 consecutive days. […] The blood was allowed to stand at room temperature for 2 hours, then centrifuged at 3000 rpm for 20 minutes. Serum was aspirated, aliquoted, and stored at -70 °C for future use. After blood collection, euthanize mice by cervical dislocation. Perform laparotomy to remove the liver. Rinse twice with pre-chilled PBS. Excise the left hepatic lobe tissue. […] Store remaining tissue at -70 °C for future use. • Serum AST and ALT Assay: Use 10 µL of each sample for testing. Determine mouse serum AST and ALT levels according to the operating manual. Measure absorbance at 510 nm using an enzyme-linked immunosorbent assay (ELISA) reader. Calculate sample concentration (U/L) based on the standard curve.
Q-PCR Analysis: Tissue total RNA extraction, cDNA synthesis, and PCR amplification methods are identical to Example 4. Additional primer information is as follows:
Data Statistics: All data are expressed as means ± standard error of the mean (S.E.M.). Differences were analyzed for significance using analysis of variance (ANOVA). For groups showing significant differences in ANOVA, one-way ANOVA followed by Dunnett's test was performed to compare intergroup differences.

[10] = physchem; details: water, 37 °C, thermodynamic from solid

## C=C1C(=O)O[C@H]2[C@H]1CCC(C)=C1CC[C@@](C)(OC(=O)NCCN3CCOCC3)[C@@H]12 [compound 99]
[1]
  antitumor effects: no significant antitumor effects

## CC(C)(O)c1coc(S(=O)(=O)NC(=O)Nc2c3c(cc4c2CCC4)CCC3)c1 [MCC950, reference compound]
[2]
  Il1: 5.43±0.71
  Il6: 9.52±0.84
  Tnf: 4.33±0.52
[3]
  24-hour urine protein level: 0.89±0.11
[3]; serum
  BUN: 12.08±2.01
  Scr: 22.18±3.41
[3]; urine
  Kim-1: 0.53±0.06
  β-MG: 15.41±0.39

## CC1=C2CC[C@@](C)(OC(=O)N3CCCCC3)[C@@H]2[C@H]2OC(=O)[C@@H](CN(C)C)[C@@H]2CC1 [compound 102]
[1]
  antitumor effects: no significant antitumor effects
[4]; 1 h
  Release rate: 6.8%
[4]; 2 h
  Release rate: 14.6%
[4]; 4 h
  Release rate: 24.8%
[4]; 8 h
  Release rate: 43.0%
[4]; 12 h
  Release rate: 51.8%
[5]; 1 h
  Release rate: 6.6%
[5]; 2 h
  Release rate: 14.0%
[5]; 4 h
  Release rate: 26.0%
[5]; 8 h
  Release rate: 42.4%
[5]; 12 h
  Release rate: 47.8%

## C=C1C(=O)O[C@H]2[C@H]1CCC(C)=C1CC[C@@](C)(OC(=O)NCCN3CCOCC3)[C@@H]12 [compound 78]
[6]; 1 µM
  CCR2 mRNA suppression rate in MDSCs (%): 23.0%
[6]; 10 µM
  CCR2 mRNA suppression rate in MDSCs (%): 52.7%
[7]; 1 µM
  Suppression Rate (%): 29.0%
[7]; 10 µM
  Suppression Rate (%): 67.1%

## COc1cc(C2Oc3cc([C@H]4Oc5cc(O)cc(O)c5C(=O)[C@@H]4O)ccc3OC2CO)ccc1O (stereo partly shown) [Silybin, reference compound]
[8]
  ALT: 121.58±15.45
  AST: 301.45±38.44
[9]
  Acta2: 2.91±0.48
  Col1a1: 1.84±0.17
  Tgfb1: 1.11±0.08

## C=C1C(=O)O[C@H]2[C@H]1CCC(C)=C1CC[C@@](C)(OC(=O)N3CCCCC3)[C@@H]12 [compound 83]
[6]; 1 µM
  CCR2 mRNA suppression rate in MDSCs (%): 17.0%
[6]; 10 µM
  CCR2 mRNA suppression rate in MDSCs (%): 70.0%
[10]
  solubility: 152 µg/mL (≈ 423 µM)
[7]; 1 µM
  Suppression Rate (%): 29.4%
[7]; 10 µM
  Suppression Rate (%): 75.9%
